This is an account of results in patent US6949528B1, “Compositions containing lysophosphatidic acids which inhibit apoptosis and uses thereof” (priority 1998, dated 2005).

One series relates to C3H/10T1/2 cells. Description: Anti-apoptotic activity assay: serum deprivation of C3H/10T1/2 cells. Type of series: cell-based. To be noted: for activity compared with lysophosphatidic acid: Table 3. The source says:
In order to determine the […] of the claimed invention, the following method of analysis was used. The cell assay is described in detail in U.S. Pat. Nos. 5,637,486, 5,620,888, and 5,681,703, and Tomei et al. (1993) Proc Natl. Aci. 90:853-857. Briefly, mouse fibroblast C3H/10T1/2 cells (clone 8) were obtained from ATCC (Rockville, Md.) and were maintained in exponential growth phase in which the cell cycle is randomly distributed and no cells are arrested in G0, and in quiescence. Exponential growth phase was assured by seeding at 2000 cells per 1 ml (5 ml for 60 mm culture plate) five days prior to the beginning of the experiment. Assays were performed on cells only up to passage 15. At T=0, cultures were transferred to serum-free medium, as an appropriate stimulus, and seed extracts were added. Controls included 10^−7 and 5×10^−8 M 12-O-tetradecanoyl phorbol-13-acetate (TPA) to ensure the responsiveness of the cell culture. The samples were added to serum free medium and sterile filtered prior to addition to the cultures. Assays were performed in triplicate or quadruplicate. Analyses of the cell responses were made between 18 and 28 hours of serum deprivation. Two assays were performed on each cell culture plate consisting of differential cell counts.
1. All non-adherent or loosely adherent cells were removed from the culture dish and counted by appropriate techniques, typically counting by electronic particle counting instrument. These are the apoptotic cells, the serum deprived released cells (SDR), released by the action of cultivation in serum-free medium. Approximately 95% of these released cells are apoptotic as shown by both ultrastructure analysis and DNA fragmentation analysis.
2. The remaining adherent cells (ADH) were exposed to a buffered, typically pH 7.3, balanced salt solution such as a Hanks Balanced Salt Solution without calcium and magnesium salts containing 0.05% trypsin and 0.53 mM ethylene diaminetetraacetic acid (EDTA). Each culture was incubated at either room temperature or 37(C on a rocking platform to ensure uniform distribution of the trypsin reagent over the culture surface. After a standardized period of time, typically 10 minutes, the released cells were removed from each culture dish and measured by the same means as described above, typically electronic particle counting. This ADH cell count is comprised of both trypsin resistant and trypsin sensitive cells as described in U.S. Pat. Nos. 5,637,486, 5,620,888, and 5,681,703.
Anti-apoptotic activity is expressed in the following examples as the calculated concentration of material ((g/ml of media) required to save 50% of the cells released on serum free treatment.
The ability of 18:1-LPA an other LPAs to protect serum-starved cells from apoptotic death was measured using the C3H/10T1/2 cell assay, performed as described in Example 2. The effect of various compounds on the ability of lysophosphatidic acid to protect serum-starved cells from apoptotic death was also measured. Log phase cells were seeded in 60 mm Petri dishes at 175-350 cells per cm2 and maintained in Basal Medium Eagle (BME) supplemented with 10% Heat Inactivated Fetal Bovine Serum (HIFBS). On day 3 the cells were given fresh media. Treatment began on day 5 when the media containing serum was removed and replaced with the LPA mixture to be tested. After 24 hours of treatment, day 6, serum deprived released (SDR) cells (the […] cell population) and adherent (ADH) cells were separated and counted using an electronic cell counter (Coulter Corporation, Hialea, Fla.). […]

Series [1] deals with rat neonatal cardiomyocytes. The experiment in a line: Cardiomyocyte death induced by serum/glucose deprivation. It is filed as cell-based. To be noted: for Emax: Rattus norvegicus, Cardiomyocyte, read-out: Maximum effect relative to 18:1 LPA in cardiomyocytes. On the procedure: Cardiomyocytes were prepared from hearts of day-old Sprague Dawley rats by trypsinization and mechanical disaggregation (Simpson, (1985)) Circ. Res. 56:884-894. The cells were resuspended in MEM, 1×MEM vitamins (Gibco), 5% fetal bovine serum and 50 U/ml penicillin-G and pre-plated for 30 minutes to reduce contamination of non-myocytes. The non-adherent cardiac myocytes were separated and seeded in 2 ml in 35 mm dishes at a density of 3.5×10^5 viable cells per ml. The cells were allowed to adhere for 16-24 hours in a 37° C./5% CO2 humidified incubator.
For serum deprivation, the medium was replaced with fresh serum-free RPMI, whereas serum/glucose deprivation was performed using glucose-free RPMI. The induction of cell death by adriamycin or C2-ceramide was accomplished by the addition of the agent prepared in serum-free RPMI. As a model of ischemia, cultures in serum and glucose free RPMI were placed in an airtight chamber and the latter was continuously perfused with oxygen-free gas overlay of 95% N2/5% CO2 for 8 hours at 37° C. To model reperfusion of the ischemic cells, 10% fetal bovine serum, 2 g/L of glucose were added and the cultures were returned to a normal oxygen gas overlay (37° C./5% CO2) in a humidified incubator for 16 hours.
T investigate effects of LPA, LPA plus other phospholipids, PEG or their mixtures on cell death, various combinations of these components were added to cells in serum free medium at the beginning of cytotoxic treatment.
Because cardiomyocytes are terminally differentiated non-dividing cells, viability was determined by measurement of the decrease in the relative number of adherent cells. […] Adherent cardiomyocytes were collected from culture dishes using 0.25% Trypsin/0.05% EDTA and counted on Coulter Counter ZM and Coulter Channelyzer 256.

Series [2] in a line: Electrophoresis radiobinding assay (native polyacrylamide gel). It is filed as binding. To be noted: FIG. 9 and other experiments. On the procedure: Electrophoresis radiobinding assay. Proteins were analyzed on native polyacrylamide gels following incubation with ^3H-labeled 18:1-LPA. ^3H-labeled lysophosphatidic acid (1-oleyl) (DuPont NEN Products, Boston, Mass.) was added to tested proteins at 1 nM labeled 18:1-LPA/45_(g protein. Mixtures were incubated at a bicarbonate buffered saline/EDTA solution at 37° C. for 60 minutes. Incubated samples were mixed with native gel sample buffer (312_mM Tris pH 6.8, 50% glycerol, 0.05% bromophenol blue) and loaded entirely onto an 8% discontinuous native polyacrylamide gel. Following electrophoresis, proteins were fixed into the gels using an aqueous solution consisting of glacial acetic acid, 10% (vol/vol) and methan 130% (vol./vol.) solution. Fixed gels were then incubated for 60 minutes in autoradiography enhancer (EN^3HANCE, DuPont NEN Products, Boston, Mass.), and dried onto 3M chromatography paper (Whatman, Clifton, N.J.) and exposed to autoradiography film (X-Omat, Kodak, Rochester, N.Y.) for 72 hours at −80° C.

[3] abbreviates: serum-deprived C3H/10T1/2 cells, 24 hours of treatment.

Like-named read-outs stand apart in the source and are kept apart here.

As to `CCCCCCCC/C=C\CCCCCCCC(=O)OCC(COP(O)(O)=S)OC` (racemic) [Compound 48, 3-O-Oleoyl-2-O-methyl-rac-glycero-1-thiophosphate], the “activity compared with lysophosphatidic acid” value with C3H/10T1/2 cells is recorded as “activity significantly higher than lysophosphaticid acid”. In the series with C3H/10T1/2 cells (setting [3]), the “Concentration for Max Effect” value turned out to be 1 µM and the “Maximum effect relative to 18:1 LPA” value was 130%. For the same molecule, in series [1] (serum/glucose deprivation), the “Concentration ranges for cardiomyocyte protection” value (from here on “Concentration ranges”) was “.03 to 10 µM” and the “Maximum effect relative to 18:1 LPA in cardiomyocytes” value amounted to 100%.
On to `CCCCCCCC/C=C\CCCCCCCCOC(=O)C(COP(O)(O)=S)OC` (racemic) [Compound 78, Oleyl 1-thiophosphoryl-2-O-methyl-rac-glycerate], for which the “activity compared with lysophosphatidic acid” value with C3H/10T1/2 cells is “activity significantly higher than lysophosphaticid acid”. Further, in the series with C3H/10T1/2 cells (setting [3]), the “Concentration for Max Effect” value turned out to be 1 µM and the “Maximum effect relative to 18:1 LPA” value worked out at 160%. For the same molecule, in series [1] (serum/glucose deprivation), the “Concentration ranges” value is “.01 to 3 µM” and the “Maximum effect relative to 18:1 LPA in cardiomyocytes” value came to 130%.
For the molecule `CCCCCCCC/C=C\CCCCCCCC(=O)OCC(COP(=O)(OC)OC)OC` (racemic) [Compound 45, Dimethyl 3-O-oleoyl-2-O-methyl-rac-glycero-1-phosphate], the Emax in series [1] turned out to be 30%. Also, in series [1] (serum/glucose deprivation), the “Concentration ranges” value turned out to be 30 µM.
On to `CCCCCCCC/C=C\CCCCCCCC(=O)OCCCOP(O)(O)=S` [Compound 68, 1-(3-propyloleoate)thiophosphate], for which, in the series with C3H/10T1/2 cells (setting [3]), the “Concentration for Max Effect” value is 1 µM and the “Maximum effect relative to 18:1 LPA” value is listed as 150%. Further, in series [1] (serum/glucose deprivation), the “Concentration ranges” value was “.003 to 10 µM” and the “Maximum effect relative to 18:1 LPA in cardiomyocytes” value is 100%.
As for `CCCCCCCC/C=C\CCCCCCCCOCC(O)COP(=O)(O)O` (racemic) [Compound 12, 3-O-Oleyl-rac-glycero-1-phosphate], in the series with C3H/10T1/2 cells (Mus musculus, serum-deprived C3H/10T1/2 cells, 24 hours of treatment, read-out: Maximum effect relative to 18:1 LPA), the Emax worked out at 100%. For the same molecule, in the series with C3H/10T1/2 cells (setting [3]), the “Concentration for Max Effect” value was 10 µM. Besides, in series [1] (serum/glucose deprivation), the Emax is 100% and the “Concentration ranges” value was in the range of 1 to 10 µM.
Take `CCCCCCCC/C=C\CCCCCCCCOCC(COP(O)(O)=S)OC` (racemic) [Compound 66, 3-O-Oleyl-2-O-methyl-rac-glycero-1-thiophosphate]: in the series with C3H/10T1/2 cells, the “activity compared with lysophosphatidic acid” value is recorded as “activity significantly higher than lysophosphaticid acid”. Moreover, in the series on C3H/10T1/2 cells (setting [3]), the “Concentration for Max Effect” value stood at 1 µM and the “Maximum effect relative to 18:1 LPA” value worked out at 130%. In series [1] (serum/glucose deprivation), the “Concentration ranges” value is “.03 to 1 µM” and the “Maximum effect relative to 18:1 LPA in cardiomyocytes” value turned out to be 60%.
`CCCCCCCCCCOCCCOP(=O)(O)O` [Compound 19, 3-Decyloxypropyl-1-phosphate]: in the series on C3H/10T1/2 cells (setting [3]), the “Concentration for Max Effect” value was determined as 30 µM and the “Maximum effect relative to 18:1 LPA” value amounted to 50%. Also, in series [1] (serum/glucose deprivation), the “Concentration ranges” value was 1 to 10 µM and the “Maximum effect relative to 18:1 LPA in cardiomyocytes” value was found to be 100%.
In the case of `CCCCCCCCCCCCCCOCC(O)COP(=O)(O)O` (racemic) [Compound 4, 3-O-Tetradecyl-rac-glycero-1-phosphate], the “Maximum effect relative to 18:1 LPA: Toxic” value in the series on C3H/10T1/2 cells was “Toxic”. For the same molecule, the “lowest concentration at which cytotoxic effects were observed (column Concentration for Max Effect)” value with C3H/10T1/2 cells (mouse, 24 h) came to 10 µM. Also, in series [1] (serum/glucose deprivation), the “Toxic concentration range in cardiomyocytes” value was “Toxic (3-30 μM)”.
With `CCCCCCCC/C=C\CCCCCCCC(=O)OCCCOP(=O)(O)O` [Compound 30, 1-(3-propyl oleoate)phosphate], in the series with C3H/10T1/2 cells (setting [3]), the “Concentration for Max Effect” value is 30 µM and the “Maximum effect relative to 18:1 LPA” value came to 100%. In addition, in series [1] (serum/glucose deprivation), the “Concentration ranges” value lay within 1 to 10 µM and the “Maximum effect relative to 18:1 LPA in cardiomyocytes” value was found to be 150%.
The matching figures for `CCCCCCCC/C=C\CCCCCCCCOCCCOP(=O)(O)O` [Compound 16, 3-O-Oleyloxypropyl-1-phosphate]: 10 µM, 100%, 1 to 3 µM and 100%.
Turning to `CCCCCCCCCCOCC(O)COP(=O)(O)O` (racemic) [Compound 11, 3-O-Decyl-rac-glycero-1-phosphate], in series [1] (serum/glucose deprivation), the Emax turned out to be 100% and the “Concentration ranges” value lay within 1 to 10 µM.

B1: α-fetoprotein: α-fetoprotein from fetal bovine serum (protein, UniProt Q3SZ57 19-610, looked up)
Alpha-fetoprotein: RTMHKNAYGIDSILDSSPCSSGTNLVGLATIFFAQSVQGATYEEVSQMVKDVLTIIEKPTGSKQPAGCLENQVSAFLEEICREKEIPEKYGLSDCCSRTGEERHDCFLAHKKAAPASIPPFPVLEPVTSCKSYKENRELFINRYIYEIARRHPVLYAPTILSVANQYNKIIPHCCKAENATECFETKVTSITKELRESSLLNQHICAVMGKFGPRTFRAITVTKVSQKFPKANFTEIQKLVMDVAHIHEECCKGNVLECLQDGERVMSYICSQQDILSRQIAECCKLPTTLELGHCIIHAENDDKPEGLSPNVNRFLGDRDFNQLSSRDKDLSMARFTYEYSRRHTKLAVPIILRVAKGYQELLEKCSQSENPSECQDKGEEELEKYIQESQALAKRSCGLFQKLGEYYLQNAFLVAYTKKAPQLTSPELMALTRKMANAGAICCHLSEDKQLACGEGVADLIIGHLCIRHEENPINPGVDQCCTSSYSNRRPCFSSLVVDETYVPPPFSDDKFIFHKDLCQVQGVPLQTMKQQFLINLVKQKPQITEEQLETVVADFSGLLEKCCQSQEQEVCFTEEGPALISKTRAALGV
Consider B1, for which, in series [2], the “binding to 18:1-LPA, detectable band” value is “bind to 18:1-LPA”.
